Laboratory results taken from patent US20070259056A1, “Anti-Tumour Terpene Compounds” (COMPTON DEVELOPMENTS LTD., priority 2003, published 2007).
Read-outs that look alike come from different tables or passages of the source.

Key:
[1] = tested on: A375 cells (a human skin melanoma cell line); assay: MTT assay, cytotoxicity on A375 cells; format: cell-based; details: for % Cytoxicity: A375 cells; for concentration inducing / required to initiate cell death: A375 tumour cells
[2] = tested on: S180 murine sarcoma cells; assay: MTT assay, cytotoxicity on S180 cells; details: S180 and human tumour cells in culture
Description: Two transformed cell lines were chosen for MTT analysis, S180 murine sarcoma cells and HT1080 human fibrosarcoma cells. Cells were seeded in 96-well microliter plates at a density of 2×10^5 cells/ml and incubated at 37° C. and 5% CO2 for 24 hours prior to treatment. 200 ul PBS was added to the wells on the outer edges of the plate to reduce evaporation loss from the wells containing cells.
Serial dilutions were carried out to enable a range of progressively more dilute concentrations of extract to be tested. The same procedure was followed to make solutions of staurosporine and ethanol of the same concentrations. Staurosporine, an agent with well-established cytotoxic properties, was incorporated into the study to provide a benchmark to compare the cytotoxicity of the extracts against.
Careful mixing with a pipette ensured thorough dissolution. […] This was done immediately after addition of DMSO.
The method was also employed to test the impact of identified components of the Haddi extracts. Thus, trans-β-Ocimene and γ-Bisabolene both major components of the Haddi extract were tested using the MTT assay to estimate their impact on tumour cell cytotoxicity and viability, see FIGS. 7 to 10.

[3] = tested on: mammals; details: cited from earlier work
[4] = tested on: mixed cultures containing fibroblast cells and tumour cells; assay: Mixed tissue culture of fibroblast cells and tumour cells; format: cell-based; details: 12 hrs
Description: In addition when mixed cultures containing fibroblast cells and tumour cells are treated, the normal fibroblasts appear to survive while the tumour cells go into apoptosis.
The results of such an experiment are shown in FIG. 14, wherein a mixed tissue culture has been treated for 12 hrs with 5 uM Bisabolene. […] In FIG. 15 a mixed tissue culture has been treated for 12 hrs with 100 uM Ocimene.

[5] = tested on: HT1080 human fibrosarcoma cells; assay: Annexin V bioassay of apoptosis in HT1080 cells; format: cell-based; details: 5 uM, 12 hours
Text: The Annexin V bioassay is used to distinguish between cells dying via the apoptotic route and cells dying by necrosis. Knowing how ocimene and bisabolene cause cell death is crucial. […] This is because necrotic cells burst and release their content into the surroundings, thus causing an inflammatory response that is potentially harmful to neighbouring, non-target cells.
The Annexin V bioassay utilises an early change in the plasma membrane of apoptotic cells during which phosphatidylserine (PS), a membrane bound phospholipid, is translocated from the inner surface of the membrane bi-layer to the outer surface—thus bringing the PS into contact with the environment. This change occurs before membrane bleeding and far earlier than DNA fragmentation thus making it an ideal marker for early apoptotic cells. Annexin V is a Ca^2+-dependent phospholipid binding protein with a high affinity for PS. In this study the Annexin V was coupled to a fluorescent marker called FITC, to generate an Annexin V-FITC conjugate. FITC fluoresces with an intense green/yellow colour when viewed via fluorescent microscopy. Thus, early apoptotic cells will bind Annexin V-FITC on their plasma membranes and fluoresce- green/yellow, whereas late apoptotic cells will fluoresce green/yellow in the cytoplasm as well as at the membrane.
To identify necrotic cells another dying agent, propidium iodide (PI) is used. […]

[6] = tested on: MM6 cells (monocyte leukaemic cell line); details: for % Cytoxicity: MM6 cells; for concentration as low as which high cell death is induced: MM6 tumour cells
Description: The MTT assay is a powerful, quantitative and highly reliable colourimetric assay that measures the viability of a cell population. […] The amount of formazan produced is directly proportional to the number of viable cells in the test population. The formazan product formed can be dissolved in dimethyl sulfoxide (DMSO), which enables quantification of the product to be obtained via spectrophotometry. A population containing largely viable cells will produce high levels of the formazan product and will therefore give a deep purple solution upon dissolution with DMSO, while a cell population that has mostly dead cells will produce a colourless solution. The amount of light absorbed (at a wavelength of 575 nm) can be converted to % cytotoxicity by using the following calculation: [control absorption−test absorption]X 100=% cytotoxicity control absorption Experimental Protocol
100 ul of each concentration of each extract/control were added to 3 separate wells in a labeled microtitre plate. In the untreated control wells 100 ul of medium was added—all wells having a total final volume of 200 ul. 3 identical replicates of this were carried out for testing after 24, 48 and 72 hours. All plates were incubated at 37° C. and 5% CO2 until reading.
After the required length of time (i.e. 24, 48 or 72 hours) 20 ul MTT solution (5 mg/ml) was added to each well (excluding wells containing only PBS). Plates were then returned to the incubator (under the same conditions) for a further 4 hours. MTT is photosensitive so all plates were covered in foil to minimise exposure to light. After 4 hours all medium from the wells was pipetted out (care was taken to avoid disturbing the formazan crystals) and 200 ul DMSO was added to each well. Careful mixing with a pipette ensured thorough dissolution. All plates were then read on a spectrophotometer for absorption of light at 575 nm. This was done immediately after addition of DMSO.

Compound: C=C/C(C)=C/CC=C(C)C [trans-β-Ocimene, trans-β-ocimene]
- % Cytoxicity ([1]; 46 μM, 24 hours): 7%
- % Cytoxicity ([1]; 46 μM, 48 hours): −2%
- % Cytoxicity ([1]; 46 μM, 72 hours): −33%
- % Cytoxicity ([1]; 92 μM, 24 hours): −11%
- % Cytoxicity ([1]; 92 μM, 48 hours): −25%
- % Cytoxicity ([1]; 92 μM, 72 hours): −31%
- % Cytoxicity ([1]; 184 μM, 24 hours): 7%
- % Cytoxicity ([1]; 184 μM, 48 hours): 8%
- % Cytoxicity ([1]; 184 μM, 72 hours): −10%
- % Cytoxicity ([1]; 368 μM, 24 hours): 29%
- % Cytoxicity ([1]; 368 μM, 48 hours): 35%
- % Cytoxicity ([1]; 368 μM, 72 hours): 31%
- tumour cell death ([2]; concentrations above 200 mM): ~100%
- toxicity to mammals [3]: non toxic to mammals
- survival of fibrocytes versus tumour cells in mixed culture ([4]; 100 uM): fibrocytes spread out and survive whilst tumour cells round off to form apoptotic bodies

Compound: CC(C)=CCC/C(C)=C1/CC=C(C)CC1 [γ-Bisabolene, γ-bisabolene]
- induction of apoptotic cell death (Annexin V) [5]: induction of apoptotic cell death
- % Cytoxicity ([6]; 0.13 μM, 24 hours): 3%
- % Cytoxicity ([6]; 0.13 μM, 48 hours): −37%
- % Cytoxicity ([6]; 0.13 μM, 72 hours): 13%
- % Cytoxicity ([6]; 0.25 μM, 24 hours): 49%
- % Cytoxicity ([6]; 0.25 μM, 48 hours): 68%
- % Cytoxicity ([6]; 0.25 μM, 72 hours): 80%
- % Cytoxicity ([6]; 2.5 μM, 24 hours): 51%
- % Cytoxicity ([6]; 2.5 μM, 48 hours): 70%
- % Cytoxicity ([6]; 2.5 μM, 72 hours): 78%
- % Cytoxicity ([6]; 10 μM, 24 hours): 45%
- % Cytoxicity ([6]; 10 μM, 48 hours): 67%
- % Cytoxicity ([6]; 10 μM, 72 hours): 78%
- concentration as low as which high cell death is induced [6]: 0.25 µM
- % Cytoxicity ([1]; 0.13 μM, 24 hours): 15%
- % Cytoxicity ([1]; 0.13 μM, 48 hours): 5%
- % Cytoxicity ([1]; 0.13 μM, 72 hours): 13%
- % Cytoxicity ([1]; 0.25 μM, 24 hours): 10%
- % Cytoxicity ([1]; 0.25 μM, 48 hours): 7%
- % Cytoxicity ([1]; 0.25 μM, 72 hours): 50%
- % Cytoxicity ([1]; 2.5 μM, 24 hours): 15%
- % Cytoxicity ([1]; 2.5 μM, 48 hours): 55%
- % Cytoxicity ([1]; 2.5 μM, 72 hours): 71%
- % Cytoxicity ([1]; 10 μM, 24 hours): 23%
- % Cytoxicity ([1]; 10 μM, 48 hours): 64%
- % Cytoxicity ([1]; 10 μM, 72 hours): 77%
- concentration inducing / required to initiate cell death [1]: 0.25 µM
- concentration at which potent [2]: around 50 mM
- survival of fibrocytes versus tumour cells in mixed culture ([4]; 5 uM): fibrocytes survive whilst tumour cells round off as apoptotic bodies

Compound: CC(C)=CCC[C@](C)(O)C1CC=C(C)CC1 (stereo partly drawn) [α-Bisabolol, α-bisabolol]
- % Cytoxicity ([6]; 0.13 μM, 24 hours): 48%
- % Cytoxicity ([6]; 0.13 μM, 72 hours): 53%
- % Cytoxicity ([6]; 0.25 μM, 24 hours): 48%
- % Cytoxicity ([6]; 0.25 μM, 72 hours): 54%
- % Cytoxicity ([6]; 2.5 μM, 24 hours): 46%
- % Cytoxicity ([6]; 2.5 μM, 72 hours): 51%
- % Cytoxicity ([6]; 10 μM, 24 hours): 33%
- % Cytoxicity ([6]; 10 μM, 72 hours): 49%
- concentration as low as which high cell death is induced [6]: 0.13 µM
- % Cytoxicity ([1]; 28 μM, 24 hours): −2%
- % Cytoxicity ([1]; 28 μM, 72 hours): 1%
- % Cytoxicity ([1]; 56 μM, 24 hours): −27%
- % Cytoxicity ([1]; 56 μM, 72 hours): 10%
- % Cytoxicity ([1]; 112 μM, 24 hours): 10%
- % Cytoxicity ([1]; 112 μM, 72 hours): 26%
- % Cytoxicity ([1]; 225 μM, 24 hours): 31%
- % Cytoxicity ([1]; 225 μM, 72 hours): 41%
- concentration inducing / required to initiate cell death [1]: 225 µM
